Tests used:
[1] = target: T1, ApmA (Staphylococcus aureus, UniProt A0A1D0AST6); assay: X-ray crystallography ([…] A); format: binding; conditions: acetyl donor; crystals: 0.1 M citric acid pH 3.6, 30% PEG 200, 5 mM apramycin, 2 mM acetyl-CoA
T1 construct: full length, residues 1-274 described; synthetic gene in pET19b-TEV, E. coli BL21(DE3) host; N-terminal His10 tag cut by TEV for crystals; SeMet form also made; trimer

[2] = target: T1, ApmA; assay: X-ray crystallography ([…] A); acetylation product shown by HR-ESI-MS and NMR; format: binding; conditions: crystals: 0.2 M CaCl (so in the source), 20% PEG 3350, 5 mM apramycin; turnover: 500 uM acetyl-CoA, pH 7.5, room temperature; acetylated at 2'-NH2; PDB id printed as 7J6M2 (typo for 7JM2)

T1 sequence (A0A1D0AST6 entry or part of it): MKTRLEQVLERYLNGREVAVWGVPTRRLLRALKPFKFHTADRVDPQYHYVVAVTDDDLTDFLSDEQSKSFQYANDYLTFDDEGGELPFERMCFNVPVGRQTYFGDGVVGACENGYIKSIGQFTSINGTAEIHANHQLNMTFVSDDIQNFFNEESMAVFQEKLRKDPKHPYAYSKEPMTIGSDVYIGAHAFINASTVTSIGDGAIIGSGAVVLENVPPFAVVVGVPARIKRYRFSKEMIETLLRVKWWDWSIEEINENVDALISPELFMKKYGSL

Compound | X-ray crystallography (2.30 A) [1] | X-ray crystallography (1.85 A); acetylation product shown by HR-ESI-MS and NMR [2]
CC(=O)SCCNC(=O)CCNC(=O)[C@H](O)C(C)(C)COP(=O)(O)OP(=O)(O)OC[C@H]1O[C@@H](n2cnc3c(N)ncnc32)[C@H](O)[C@@H]1OP(=O)(O)O [acetyl-CoA] | 7JM1 (ApmA complex with acetyl-CoA) | 
CN[C@@H]1[C@@H](O[C@H]2O[C@H](CO)[C@@H](N)[C@H](O)[C@H]2O)O[C@H]2C[C@@H](N)[C@@H](O[C@H]3[C@H](O)[C@@H](O)[C@H](N)C[C@@H]3N)O[C@@H]2[C@@H]1O [apramycin] |  | Crystals of the apoenzyme and ApmA in complex with apramycin or acetyl-CoA were obtained
